Assay: xn = mol fraction of the nth substance listed
Details: 101 kPa

viscosity (296.97 K, x2 = 0.75) [mPa·s]	viscosity (301.89 K, x2 = 0.75) [mPa·s]	viscosity (306.95 K, x2 = 0.75) [mPa·s]	viscosity (312 K, x2 = 0.75) [mPa·s]	viscosity (317.18 K, x2 = 0.75) [mPa·s]	viscosity (353.18 K, x2 = 0.75) [mPa·s]	viscosity (296.84 K, x2 = 0.9412) [mPa·s]	electrical conductivity (298.1 K, x2 = 0.9412) [S/m]	viscosity (301.89 K, x2 = 0.9412) [mPa·s]	viscosity (312.13 K, x2 = 0.9412) [mPa·s]	electrical conductivity (313.32 K, x2 = 0.9412) [S/m]	viscosity (317.31 K, x2 = 0.9412) [mPa·s]	electrical conductivity (328.03 K, x2 = 0.9412) [S/m]	viscosity (332.72 K, x2 = 0.9412) [mPa·s]	viscosity (353.18 K, x2 = 0.9412) [mPa·s]	SMILES
2771	1657	1002.8	612	382	59.5										C[P+](c1ccccc1)(c1ccccc1)c1ccccc1.[Br-] + OCC(O)CO
						1359.8	0.007	943	459	0.0174	306	0.0419	110.5	59.49	[Cl-].c1ccc(C[P+](c2ccccc2)(c2ccccc2)c2ccccc2)cc1 + OCC(O)CO

— a compilation of properties of binary mixtures (doi:10.1016/j.molliq.2015.11.032)
